# Test results from publication PMC11996864, “A small-molecule inhibitor of BCL10-MALT1 interaction abrogates progression of diffuse large B cell lymphoma” (The Journal of Clinical Investigation, 2025).
# “And” between values parts separate entries of the source, which are not always exact repeats. Identical values can stand only once. Like-named read-outs stand apart in the source and are kept apart here.
# Columns and labels:
# [1] = tested on: IL-2 secretion from primary mouse splenocytes; assay: Secreted IL-2 ELISA, stimulated primary splenocytes; assay type: cell-based; settings: Suppl Fig. 4B; for IL-2 protein level (% of control) / activity at 5 µM: 5 uM; for activity at 1 µM / activity at 5 µM: Mus musculus, Splenocyte, read-out: IL-2 protein level (% of control)
# [2] = tested on: BCL10 and MALT1 mRNA in TMD8 cells; assay: BCL10 and MALT1 mRNA expression, qRT-PCR; assay type: cell-based, human
# Procedure: Transfection. HEK293T or HepG2 BCL10-/- cells (used only in Supplemental Figure 1 where indicated) were transiently transfected at approximately 80% confluence using Lipofectamine 3000 (ThermoFisher, Cat# L3000015) per manufacture instructions. Cells were lysed in buffer (150 mM NaCl, 2 mM EDTA, 10% glycerol, 1% Nonidet P-40, 20 mM Tris Hcl, pH 7.4) containing protease and phosphatase inhibitors (Thermo Scientific, Cat#78446) at 24 hours for HEK293T cells or 48 hours for HepG2 BCL10-/- cells.
# Immunoprecipitation. Cells were rinsed in PBS and lysed in buffer (150 mM NaCl, 2 mM EDTA, 10% glycerol, 1% Nonidet P-40, 20 mM Tris HCl, pH 7.4) containing protease and phosphatase inhibitors (Thermo Scientific, Cat#78446). Supernatants were incubated with anti-Myc tag agarose beads (Takara, Cat# 631208) or anti-HA tag matrix (Roche, Cat# 11815016001) overnight at 4°C with gentle rotation. Beads were then pelleted at 1000 rpm for 2 min and washed 3-4 times with buffer. Antibody-protein conjugates were removed from beads by boiling for ~5-8 minutes in 2x Laemmli sample buffer (Bio-Rad Laboratories, Cat# 161073) containing 2-mercaptoethanol, and samples were then subjected to SDS-PAGE and immunoblotting.
# Antibodies for western blots. The HRP-conjugated anti-HA (clone 3F10, Cat# 12013819001) and anti-HA (clone 3F10, Cat# 11867423001) antibodies were purchased from Sigma. The anti-phospho-IKKα(Ser176)/ IKKβ(Ser177) (clone C84E11, Cat# 2078), rabbit anti-GAPDH (clone […]
# were purchased from Cell Signaling Technology. The mouse anti-GAPDH (clone 6C5, Cat# sc- […]
# anti-IKKα/β (clone H-470, Cat# sc-7607) antibodies were purchased from Santa Cruz. The anti-N4BP1 antibody (Cat# CPA2415) was purchased from Cohesion Biosciences. The anti-mouse (Cat# W4021) and anti-rabbit (Cat# W4011) HRP-conjugated secondaries were purchased from Promega. The anti-Rat HRP-conjugated secondary was purchased from Cell Signaling […]
# qRT-PCR. Jurkat T cells grown in serum free media for 4 hours with indicated inhibitors prior to stimulation with PMA/Ionomycin for 4 hours. […]
# OCI-Ly1 xenografts = assay: OCI-Ly1 xenograft in NSG mice; assay type: in vivo, mouse; settings: daily i.p., result in words
# Excerpt: (§1) TMD8 cells were engrafted into 8-week-old female NOD.CB17-Prkdc^scid/J (NOD-SCID) mice from The Jackson Laboratory by subcutaneous injection of 10 × 10^6 cells resuspended in 50% Cultrex Basement Membrane Extract (R&D Systems, catalog 3632-010-02) into the right flank. OCI-Ly3 cells were engrafted into 5-week-old female NOD.Cg-Prkdc^scid Il2rg^tm1Wjl/SzJ (NSG) mice from The Jackson Laboratory by subcutaneous injection of 2.5 × 10^6 cells resuspended in Cultrex as above. OCI-Ly1 cells were engrafted into 6.5-week-old female NSG mice from The Jackson Laboratory by subcutaneous injection of 20 × 10^6 cells resuspended in Cultrex as above. For all xenograft models, when tumors reached an average volume of 100 mm^3, mice were randomized to receive M1i-124 (50 mg/kg i.p. per day), or equivalent volume of DMSO vehicle (50 μL i.p. per day). […] Tumor size was measured 3 times a week using a caliper and calculated using the formula (smallest diameter^2 × largest diameter)/2. Mice were sacrificed 24 hours after the last injection. Mice were sacrificed when the largest tumors reached 2,500 mm^3. For TMD8 xenograft experiments, tumors and various organs, including lung, heart, liver, and kidney, were collected and fixed in 10% buffered formalin, embedded in FFPE blocks, sectioned, and stained with H&E. Sections were evaluated by a board-certified pathologist.
# WT C57BL/6 mice = assay: Flow cytometry of spleen immune cell subsets after 12 days of treatment; assay type: in vivo, mouse; settings: 50 mg/kg, vs vehicle, result in words
# Procedure: Long-term in vivo toxicity experiments. WT C57/BL6 (The Jackson Laboratory) male and female mice were treated daily with 50 mg/kg M1i-124 or vehicle control for 28 days. At the time of sacrifice, blood was obtained for complete blood count, alanine transaminase, albumin, and total bilirubin (Abaxis). Livers from control and M1i-124 treated mice were collected for H&E analysis.
# Flow cytometry. Splenocytes were isolated from WT mice after 12 days of treatment with 50 mg/kg M1i-124 or vehicle control. After obtaining a single cell suspension using […] filter, cells were stained with viability dye (Tonbo Biosciences Ghost Red 780, Fisher Healthcare, Cat #50-105-2988). After blocking with mouse BD Fc BlockTM (BD Biosciences, Cat# 553141), splenocytes were stained with a panel of antibodies including antibodies from Invitrogen (anti-CD3 APC, Cat# […]
# 0251-82 and anti-NK1.1 PE-Cyanine 7 Cat#25-5941-82), an antibody from BD Bioscience (anti- […]
# and anti-CD4 BV711 Cat# 100557). Samples were run on a 5 laser LSR Fortessa flow cytometer and analyzed with FlowJo software.
# [3] = tested on: BCL10 and MALT1 mRNA in TMD8 cells; assay: BCL10 and MALT1 mRNA expression, qRT-PCR; assay type: cell-based, human; settings: TMD8, 1 μM
# OCI-Ly3 xenografts = assay: OCI-Ly3 xenograft in NSG mice; assay type: in vivo, mouse; settings: daily i.p., vs DMSO, result in words
# Excerpt: as §1
Compound,IL-2 protein level (% of control) ([1]; CD3/CD28 treated),activity at 1 µM ([1]; CD3/CD28 treated) [%],activity at 5 µM ([1]; CD3/CD28 treated) [%],activity at 1 µM ([1]; PMA/Iono treated) [%],activity at 5 µM ([1]; PMA/Iono treated) [%],IL-2 protein level (% of control) ([1]; PMA/Iono treated),"BCL10 mRNA (normalized) ([2]; TMD8, 1 μM, 24 hrs)","MALT1 mRNA (normalized) ([2]; TMD8, 1 μM, 24 hrs)","BCL10 and MALT1 mRNA levels ([2]; TMD8, result in words)",OCI-Ly1 xenograft growth (OCI-Ly1 xenografts),percentage of total lymphocytes and specific lymphocyte populations within the spleen (WT C57BL/6 mice),BCL10 mRNA (normalized) ([3]; 48 hrs),BCL10 mRNA (normalized) ([3]; 72 hrs),MALT1 mRNA (normalized) ([3]; 72 hrs),OCI-Ly3 xenograft tumor growth (OCI-Ly3 xenografts)
"CN1CCCC(CN2c3ccccc3Sc3ccccc32)C1 (stereo not drawn) [Mepazine, mepazine, reference compound]",22.2086 % of control and 29.3738 % of control,82.7,15.6,83.3,22.3,17.095 % of control and 28.7342 % of control,,,,,,,,,
O=S(=O)(NCc1ccc2c(c1)OCO2)c1ccc(Cc2ccc(S(=O)(=O)NCc3ccc4c(c3)OCO4)cc2)cc1 [M1i-124],,,,,,,1.022 and 1.024 and 1.305,0.842 and 0.979 and 1.096,modest time-dependent upregulation,no effect,no difference,1.102 and 1.661 and 1.831,2.063 and 2.239 and 2.314,1.674 and 1.428 and 1.962,significant decrease in tumor growth
